Assay results: US20250228239A1, “MOLECULES HAVING PESTICIDAL UTILITY, AND INTERMEDIATES, COMPOSITIONS, AND PROCESSES, RELATED THERETO” (priority 2024, published 2025)

How the values were obtained:
[1] = system: Beet Armyworm (Spodoptera exigua, LAPHEG); experiment: Bioassays on Beet Armyworm (BAW), 128-well diet tray assay; type: in vivo; conditions: Spodoptera exigua; Table ABC: Biological Results; species BAW; read-out: BAW
Description: (§1) Certain molecules disclosed in this document were tested against BAW and CL using procedures described in the following examples. In the reporting of the results, the “BAW & CL Rating Table” was used (See Table Section).
Bioassays on BAW were conducted using a 128-well diet tray assay. One to five second instar BAW larvae were placed in each well (3 mL) of the diet tray that had been previously filled with 1 mL of artificial diet to which 50 μg/cm^2 of the test molecule (dissolved in 50 μL of 90:10 acetone-water mixture) had been applied (to each of eight wells) and then allowed to dry. Trays were covered with a clear self-adhesive cover, vented to allow gas exchange, and held at 25° C., 14:10 light-dark for five to seven days. Percent mortality was recorded for the larvae in each well; activity in the eight wells was then averaged. The results are indicated in the table entitled “Table ABC: Biological Results” (See Table Section).

[2] = system: Cabbage Looper (Trichoplusia ni, TRIPNI); experiment: Bioassays on Cabbage Looper (CL), 128-well diet tray assay; type: in vivo; conditions: Trichoplusia ni; Table ABC: Biological Results; species CL; read-out: CL
Description: as §1
Bioassays on CL were conducted using a 128-well diet tray assay. One to five second instar CL larvae were placed in each well (3 mL) of the diet tray that had been previously filled with 1 mL of artificial diet to which 50 μg/cm^2 of the test molecule (dissolved in 50 μL of 90:10 acetone-water mixture) had been applied (to each of eight wells) and then allowed to dry. Trays were covered with a clear self-adhesive cover, vented to allow gas exchange, and held at 25° C., 14:10 light-dark for five to seven days. Percent mortality was recorded for the larvae in each well; activity in the eight wells was then averaged. The results are indicated in the table entitled “Table ABC: Biological Results” (See Table Section).

Compound | pest or weed control at 50 µg/cm2 [1] | pest or weed control at 50 µg/cm2 [2]
CC(C)(C)OC(=O)Nc1c(F)ccc(NC(=O)c2cc(NC(=O)[C@H]3[C@H](c4cc(Br)cc(C(F)(F)F)c4)C3(Cl)Cl)ccc2Cl)c1F (relative stereo) [F1073, trans-tert-Butyl-(3-(5-(3-(3-bromo-5-(trifluoromethyl)phenyl)-2,2-dichlorocyclopropane-1-carboxamido)-2-chlorobenzamido)-2,6-difluorophenyl)carbamate] | 50 to 100% | 50 to 100%
Nc1c(F)ccc(NC(=O)c2cc(NC(=O)[C@H]3[C@H](c4cc(Cl)cc(Cl)c4)C3(F)F)ccc2Cl)c1F (relative stereo) [F1080, trans-N-(3-Amino-2,4-difluorophenyl)-2-chloro-5-(3-(3,5-dichlorophenyl)-2,2-difluorocyclopropane-1-carboxamido)benzamide] | 50 to 100% | 50 to 100%
O=C(Nc1ccc(F)cc1F)c1c(F)ccc(NC(=O)[C@H]2[C@H](c3ccc(F)c(Cl)c3)C2(Cl)Cl)c1F (relative stereo) [F1086, trans-3-(2,2-Dichloro-3-(3-chloro-4-fluorophenyl)cyclopropane-1-carboxamido)-N-(2,4-difluorophenyl)-2,6-difluorobenzamide] | 50 to 100% | 50 to 100%
CC(C)(C)OC(=O)Nc1c(F)ccc(NC(=O)c2cc(NC(=O)[C@H]3[C@H](c4cc(F)cc(C(F)(F)F)c4)C3(Cl)Cl)ccc2Cl)c1F (relative stereo) [F1092, trans-tert-Butyl-(3-(2-chloro-5-(2,2-dichloro-3-(3-fluoro-5-(trifluoromethyl)phenyl)cyclopropane-1-carboxamido)benzamido)-2,6-difluorophenyl)carbamate] | 50 to 100% | 50 to 100%
O=C(Nc1ccc(F)cc1F)c1cc(NC(=O)[C@H]2[C@H](c3cc(F)cc(Br)c3F)C2(Cl)Cl)ccc1Cl (relative stereo) [F1093, trans-5-(3-(3-bromo-2,5-difluorophenyl)-2,2-dichlorocyclopropane-1-carboxamido)-2-chloro-N-(2,4-difluorophenyl)benzamide] | 50 to 100% | 50 to 100%
CC(C)(C)OC(=O)Nc1c(F)ccc(NC(=O)c2cc(NC(=O)[C@H]3[C@H](c4cc(F)cc(Br)c4F)C3(Cl)Cl)ccc2Cl)c1F (relative stereo) [F1095, trans-tert-Butyl-(3-(5-(3-(3-bromo-2,5-difluorophenyl)-2,2-dichlorocyclopropane-1-carboxamido)-2-chlorobenzamido)-2,6-difluorophenyl)carbamate] | 50 to 100% | 50 to 100%
Nc1c(F)ccc(NC(=O)c2cc(NC(=O)[C@H]3[C@H](c4cc(F)cc(Br)c4F)C3(Cl)Cl)ccc2Cl)c1F (relative stereo) [F1098, trans-N-(3-Amino-2,4-difluorophenyl)-5-(3-(3-bromo-2,5-difluorophenyl)-2,2-dichlorocyclopropane-1-carboxamido)-2-chlorobenzamide] | 50 to 100% | 50 to 100%
CC(=O)Nc1ccc(NC(=O)c2c(F)ccc(NC(=O)[C@H]3[C@H](c4ccc(F)c(Cl)c4)C3(Cl)Cl)c2F)cc1 (relative stereo) [F1101, trans-N-(4-Acetamidophenyl)-3-(2,2-dichloro-3-(3-chloro-4-fluorophenyl)cyclopropane-1-carboxamido)-2,6-difluorobenzamide] | 50 to 100% | 50 to 100%
CC(=O)Nc1ccc(NC(=O)c2c(Cl)ccc(NC(=O)[C@H]3[C@H](c4ccc(F)c(Cl)c4)C3(Cl)Cl)c2Cl)cc1 (relative stereo) [F1102, trans-N-(4-Acetamidophenyl)-2,6-dichloro-3-(2,2-dichloro-3-(3-chloro-4-fluorophenyl)cyclopropane-1-carboxamido)benzamide] | 50 to 100% | 50 to 100%
CN(C(=O)c1c(Cl)ccc(NC(=O)[C@H]2[C@H](c3ccc(F)c(Cl)c3)C2(Cl)Cl)c1Cl)c1ccc(N)cc1 (relative stereo) [F1106, trans-N-(4-Aminophenyl)-2,6-dichloro-3-(2,2-dichloro-3-(3-chloro-4-fluorophenyl)cyclopropane-1-carboxamido)-N-methylbenzamide] | 50 to 100% | 0 to 50%
CC(C)(C)OC(=O)N(C(=O)OC(C)(C)C)c1c(F)ccc(NC(=O)c2c(F)ccc(NC(=O)[C@H]3[C@H](c4ccc(F)c(Cl)c4)C3(Cl)Cl)c2F)c1F (relative stereo) [F1109, trans-tert-Butyl-N-tert-butoxycarbonyl-N-[3-[[3-[[2,2-dichloro-3-(3-chloro-4-fluorophenyl)cyclopropanecarbonyl]amino]-2,6-difluorobenzoyl]amino]-2,6-difluorophenyl]carbamate] | 50 to 100% | 50 to 100%
Nc1c(F)ccc(NC(=O)c2c(Cl)ccc(NC(=O)[C@H]3[C@H](c4ccc(F)c(Cl)c4)C3(Cl)Cl)c2Cl)c1F (relative stereo) [F1110, trans-N-(3-Amino-2,4-difluorophenyl)-2,6-dichloro-3-(2,2-dichloro-3-(3-chloro-4-fluorophenyl)cyclopropane-1-carboxamido)benzamide] | 50 to 100% | 50 to 100%
Nc1c(F)ccc(NC(=O)c2c(F)ccc(NC(=O)[C@H]3[C@H](c4ccc(F)c(Cl)c4)C3(Cl)Cl)c2F)c1F (relative stereo) [F1111, trans-N-(3-Amino-2,4-difluorophenyl)-3-(2,2-dichloro-3-(3-chloro-4-fluorophenyl)cyclopropane-1-carboxamido)-2,6-difluorobenzamide] | 50 to 100% | 50 to 100%
CC(C)(C)OC(=O)Nc1c(F)ccc(NC(=O)c2cc(NC(=O)[C@H]3[C@H](c4ccc(Br)c(C(F)(F)F)c4)C3(Cl)Cl)ccc2Cl)c1F (relative stereo) [F1115, trans-tert-Butyl-(3-(5-(3-(4-bromo-3-(trifluoromethyl)phenyl)-2,2-dichlorocyclopropane-1-carboxamido)-2-chlorobenzamido)-2,6-difluorophenyl)carbamate] | 50 to 100% | 50 to 100%
O=C(Nc1cc(F)c(NC(=O)C(F)(F)F)c(F)c1)c1cc(NC(=O)[C@H]2[C@H](c3ccc(Cl)c(Cl)c3)C2(Cl)Cl)ccc1Cl (relative stereo) [F1120, trans-2-Chloro-5-(2,2-dichloro-3-(3,4-dichlorophenyl)cyclopropane-1-carboxamido)-N-(3,5-difluoro-4-(2,2,2-trifluoroacetamido)phenyl)benzamide] | 50 to 100% | 50 to 100%
O=C(Nc1ccc(F)cc1NC(=O)C(F)(F)F)c1cc(NC(=O)[C@H]2[C@H](c3ccc(Cl)c(Cl)c3)C2(Cl)Cl)ccc1Cl (relative stereo) [F1121, trans-2-Chloro-5-(2,2-dichloro-3-(3,4-dichlorophenyl)cyclopropane-1-carboxamido)-N-(4-fluoro-2-(2,2,2-trifluoroacetamido)phenyl)benzamide] | 50 to 100% | 50 to 100%
O=C(Nc1cc(F)c(NC(=O)C(F)F)c(F)c1)c1cc(NC(=O)[C@H]2[C@H](c3ccc(Cl)c(Cl)c3)C2(Cl)Cl)ccc1Cl (relative stereo) [F1122, trans-2-Chloro-5-(2,2-dichloro-3-(3,4-dichlorophenyl)cyclopropane-1-carboxamido)-N-(4-(2,2-difluoroacetamido)-3,5-difluorophenyl)benzamide] | 50 to 100% | 50 to 100%
O=C(Nc1ccc(F)cc1NC(=O)C(F)F)c1cc(NC(=O)[C@H]2[C@H](c3ccc(Cl)c(Cl)c3)C2(Cl)Cl)ccc1Cl (relative stereo) [F1123, trans-2-Chloro-5-(2,2-dichloro-3-(3,4-dichlorophenyl)cyclopropane-1-carboxamido)-N-(2-(2,2-difluoroacetamido)-4-fluorophenyl)benzamide] | 50 to 100% | 50 to 100%
CC(=O)Nc1c(F)cc(NC(=O)c2cc(NC(=O)[C@H]3[C@H](c4ccc(Cl)c(Cl)c4)C3(Cl)Cl)ccc2Cl)cc1F (relative stereo) [F1124, trans-N-(4-Acetamido-3,5-difluorophenyl)-2-chloro-5-(2,2-dichloro-3-(3,4-dichlorophenyl)cyclopropane-1-carboxamido)benzamide] | 50 to 100% | 50 to 100%
CC(=O)Nc1cc(F)ccc1NC(=O)c1cc(NC(=O)[C@H]2[C@H](c3ccc(Cl)c(Cl)c3)C2(Cl)Cl)ccc1Cl (relative stereo) [F1125, trans-N-(2-Acetamido-4-fluorophenyl)-2-chloro-5-(2,2-dichloro-3-(3,4-dichlorophenyl)cyclopropane-1-carboxamido)benzamide] | 50 to 100% | 50 to 100%
